Patent publication US4511504A, “Carboxyalkyl peptide derivatives” (G.D. Searle & Co., priority 1983, dated 1985)

Target: T1, Human Rheumatoid Synovial Collagenase (Homo sapiens, UniProt P03956)
T1 construct: Human Rheumatoid Synovial Collagenase; from tissue; host or cells: human rheumatoid synovium (from the name only; the preparation is not described)
T1 sequence (P03956 100-469): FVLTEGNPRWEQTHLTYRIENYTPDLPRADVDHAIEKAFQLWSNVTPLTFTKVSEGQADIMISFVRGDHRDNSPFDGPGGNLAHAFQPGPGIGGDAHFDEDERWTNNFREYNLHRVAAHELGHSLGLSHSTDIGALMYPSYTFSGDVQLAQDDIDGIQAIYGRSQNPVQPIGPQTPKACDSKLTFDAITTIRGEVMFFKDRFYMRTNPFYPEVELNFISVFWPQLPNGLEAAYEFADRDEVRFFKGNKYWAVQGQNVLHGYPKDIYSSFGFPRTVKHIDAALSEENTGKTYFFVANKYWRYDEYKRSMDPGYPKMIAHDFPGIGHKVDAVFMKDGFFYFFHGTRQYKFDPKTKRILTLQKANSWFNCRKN
Test: Collagenase inhibition, procedure of Cawston and Barrett (acetyl 14C collagen hydrolysis)
Assay type: biochemical
Settings: inhibitor concentration effecting 50% inhibition; 37° C., 16 hours, native acetyl 14C collagen, Tris HCl-CaCl2 pH 7.6
Method: This was determined following the procedure of Cawston and Barrett, Anal. Biochem., 99, 340-345 (1979) whereby the 1 mM of the inhibitor being tested or dilutions thereof are incubated at 37° C. for 16 hours with native collagen and collagenase (buffered with Tris HCl--CaCl2; pH 7.6). The collagen is acetyl ^14 C collagen. The samples are centrifuged to sediment undigested collagen and an aliquot of the radiactive supernatant removed for assay on a scintillation counter as a measure of hydrolysis. The collagenase activity in the presence of 1 mM inhibitor, or a dilution thereof is compared to activity in a control devoid of inhibitor and the results reported as that inhibitor concentration effecting 50% inhibition of the collagenase.

CCCCNC(=O)[C@H](C)NC(=O)[C@H](CC(C)(C)C)N[C@H](C)C(=O)O [Example 23, N-[2-(S)-N-(1-(R)-Carboxyethyl)amino-4,4-dimethylpentanoyl]-L-alanine N-Butylamide] was tested, and the IC50 was 25 µM.
